What was measured:
S31N M2 [1] = biological target: T1, S31N M2 (Influenza A virus, UniProt P0DOF5, S31N); type: cell-based, influenza A virus (Udorn strain)
V27A M2 [2] = biological target: T2, V27A M2 (Influenza A virus, UniProt P0DOF5, V27A); type: cell-based, influenza A virus (Udorn strain)
S31N M2 [3] = biological target: T1, S31N M2; type: cell-based
V27A M2 [4] = biological target: T2, V27A M2; type: cell-based

CC1(C)C2CCC1(C)C(N1CCNCC1)C2.Cl.Cl (stereo not drawn) [Compound 16, 1-(1,7,7-trimethylbicyclo[2.2.1]hept-2-yl)piperazine dihydrochloride]
activity against S31N mutant in the yeast assay (S31N M2 [1]): inactive

NC1CCC2(CC1)C1CC3CC(C1)CC2C3 (stereo not drawn) [spiroadamantane amine]
concentration that clearly increased growth of the V27A strain (V27A M2 [2]): ≥ 0.01 µM

NC12CC3CC(CC(C3)C1)C2 [Amantadine, reference compound]
activity against S31N mutant in the yeast assay (S31N M2 [1]): did not increase the growth | activity against V27A mutant in the yeast assay (V27A M2 [2]): did not increase the growth

O=[N+]([O-])c1ccc(CNC23CC4CC(CC(C4)C2)C3)cc1 [Compound 4, 1-adamantyl (4-nitrobenzyl)amine]
% inhibition at 100 µM in TEVC S31N (S31N M2 [3]): 15.9 ± 0.2% | % inhibition at 100 µM in TEVC V27A (V27A M2 [4]): 9.7 ± 0.3%

Reference: PMC3562233 (PLoS ONE, 2013)
